From US5922554A, “Inhibition of cellular uptake of cholesterol” (The Regents of the University of California, priority 1996, dated 1999)

Tests used:
fibroblast monolayers [1] = test: Influx/uptake of ^3 H-FC (free cholesterol) from labeled LDL (or plasma, HDL) into normal fibroblast monolayers; format: cell-based, human
fibroblast monolayers [2] = test: Cholesterol efflux from ^3 H-cholesterol labeled fibroblasts to plasma; format: cell-based, human
Experimental: Fibroblast monolayers were equilibrated with ^3 H-FC-labeled native plasma or with isolated ^3 H-labeled LDL, as specified for each experiment. Following incubation, the dishes were washed with albumin-complete PBS and then (×4) with complete PBS. They were then incubated for 3 min with unlabeled plasma or lipoprotein fractions and the rate of appearance of radioactivity in the medium determined. Samples of medium (100 μl) were immediately chilled in ice water and centrifuged (10 min, 2000× g) at 0-2° C. ^3 H-cholesterol radioactivity in the supernatant was either assayed directly, or fractionated by agarose gel electrophoresis. FC efflux was linear as previously reported (Kawano et al., Biochemistry, 32: 5025-5028 (1993)).
For electrophoresis, 20 μl portions of labeled medium were added to strips of 0.75% w/v agarose in 0.025M barbital buffer (pH 8.6) and separated as previously described (Fielding et al., Biochemistry, 30: 8551-8557 (1991)). 2.5 mm gel fractions were then collected, and radioactivity measured. The location of major lipoprotein classes was determined from strips run simultaneously with whole native plasma equilibrated (60 min, 37° C.) with ^3 H-FC.
^c Percent loss of label from cells prelabeled (10 min, 37° C.

vesicular transport = conditions: Tageya et al.; cited from earlier work
fibroblast monolayers [3] = test: D2O-Ficoll density gradient fractionation of ^3 H-FC labeled fibroblasts; format: cell-based, human; conditions: clathrin fraction d 1.12 g ml^-1; NEM 2 mM
Experimental: Early endosomal vesicles were labeled with LDL-derived ^3 H-FC by a modification of procedures described by Woodman & Warren (1991) J. Cell Biol., 112:1133-1141. Fibroblast monolayers in 10 cm dishes were washed in ice-cold PBS. The cells were labeled by incubation (2 h, 4° C.) with ^3 H-FC LDL. The monolayers were washed in PBS and brought to 31° C. for 0-15 min. The cells were then quickly chilled on ice, and cold unlabeled LDL was added (15 min, 4° C.) to displace any remaining surface-bound labeled LDL and all subsequent steps were carried out at 0-4° C.
Cells from three 10 cm dishes were used for each gradient. Monolayers were washed with 140 mM sucrose, 0.5 mM MgCl2, 1 mM EGTA, 20 mM 2-[N-morpholino]ethanesulfonic acid (MES), 70 mM potassium acetate, pH 6.6 (`vesicle buffer`) (Woodman & Warren, supra.). The cells were scraped from the dishes. Dithiothreitol (1 mm) and protease inhibitors (PMSF, 200 μg ml^-1; benzamidine 0.5 mM; soybean trypsin inhibitor 10 μg ml^-1; leupeptin 1 μg ml^-1) were added. The cells were broken with a Dounce homogenizer (15 strokes) and the homogenate centrifuged at 500× g for 5 min. Ribonuclease A (50 μg ml^-1) was added. After 30 min a second centrifugation was carried out (7000× g, 30 min). Supernatant (~2 ml) was layered on a 10 ml continuous gradient of 2% Ficoll-9% D2 O to 20% Ficoll-90% D2 O in vesicle buffer containing 1 mM dithiothreitol. Centrifugation in a Beckman SW41 rotor was carried out at 80,000× g for 16 h. Fractions (~0.6 ml) were collected dropwise and the distribution of FC label determined. Because of slight variation in fraction size between gradients, data were normalized to 20 fractions for comparison between experiments. Solution density was determined gravimetrically using 100 μl portions of each fraction. The density of a given fraction was reproducible ±0.5% between experiments.
Fibroblast monolayers were incubated with ^3 H-FC LDL for 30 min at 31° C. to predominantly label the intermediate density vesicle fraction. Cell surface LDL was removed as described above. […]

fibroblast monolayers [4] = test: Transfer of intracellular ^3 H-FC to the cell surface (cholesterol oxidase accessibility); format: cell-based, human
Experimental: This assay utilized the finding (see Example 1) that only FC in the caveolar fraction of the plasma membrane fraction was modified by cholesterol oxidase in unfixed fibroblast monolayers.
The rate at which intracellular LDL-derived ^3 H-FC became accessible at the cell surface was measured as follows. Cell monolayers were labeled with ^3 H-FC LDL under the conditions shown for each experiment. Unbound and adsorbed LDL were removed as described above. In some experiments metabolic inhibitors of different transport steps were then added for 30 min at 15° C. […] Cholesterol oxidase (Boehringer-Manheim, Indianapolis, Ind., USA) was added in PBS to a final concentration of 1 U ml^-1. Incubation was for 4 h at 0° C. The cells were washed with ice-cold PBS, and extracted with 0. 1N NAOH. Cell total lipid was extracted with chloroform-methanol (1:1 v/v). […] .
Fibroblast monolayers were prelabeled with FC-labeled LDL for 2 min at 31° C. Medium and surface-bound labeled LDL were removed as described above. The cells were incubated with inhibitors of intracellular transport for 30 min at 15° C. Movement of FC label to the cell surface remained negligible (FIG. 11).
^a Relative to rate in the absence of inhibitor. Values are expressed

fibroblast monolayers [5] = test: Distribution of cell-associated LDL ^3 H-FC label by release with unlabeled lipoproteins/plasma; format: cell-based, human; conditions: 2 mM NEM; 10 min, 37° C. with 80% v/v plasma-PBS; control 0.57 ± 0.03
Experimental: Label released by unlabeled LDL (open circles); label released by unlabeled HDL but not unlabeled LDL (closed triangles) and label released with neither LDL or HDL (closed circles) expressed as percent of total label released. LDL specific activity was […]. All fractions are defined in terms of label released by either unlabeled lipoprotein within 5 min of incubation at 37° C.
Cell monolayers equilibrated with 7% plasma-DMEM were first incubated with ^3 H-FC labeled LDL as described above. At intervals, dishes of cells were washed, then incubated with unlabeled LDL or HDL at their plasma concentrations. A fraction of cell-associated label was rapidly released; maximum recovery in the medium occurred within 10 min at 37° C. In FIG. 4, the proportions of cell label which were LDL-releasable, LDL-resistant but HDL-releasable, and resistant to both LDL and HDL are shown as a function of time.
^b Proportion of cell cholesterol label retained in the cells

## CCN1C(=O)C=CC1=O [N-ethylmaleimide]
Fibroblast monolayers [1]
  inhibition of LDL-FC pathway (summary, words): inhibited
Fibroblast monolayers [1]; 30 min preincubation, FIG. 8
  effect on cellular uptake of LDL FC in first 10-15 min of incubation: no effect
Fibroblast monolayers [1]; Homo sapiens, Fibroblast, read-out: concentration for maximal inhibition
  IC (maximal): 2000 to 5000 µM
Fibroblast monolayers [1]; LDL-FC 60.2 μg ml^-1, 60 min, 37° C., 30 min preequilibration with inhibitor at: Na-azide 1 mM, NH4-vanadate 1 mM, NEM 2 mM, KNO3 50 mM, progesterone 30 μM, forskolin 30 μM, IBMX 100 μM, chloroquine 20 μM
  FC Influx: 0.40 ± 0.01 µg
Fibroblast monolayers [1]; NEM or KNO3, Example 1, FIG. 8
  inhibition of uptake of free cholesterol from LDLs (summary): > 80%
Fibroblast monolayers [1]; Table 3 conditions
  effect on LDL FC uptake: blocks selective uptake of FC from LDL
Fibroblast monolayers [1]; cells prelabeled to equilibrium (24 h) with ^3 H-FC
  time to complete inhibition by NEM: ≤ 30 min
Fibroblast monolayers [1]; same concentrations and conditions as Table 3 FC influx, 60 min
  FC Influx, % (PBS only = 100.0): 30.0%
Fibroblast monolayers [1]; time course, 30 min preincubation, after 10-15 min, FIG. 8 (5 mM NEM)
  inhibition of uptake of ^3 H-FC from LDL on further incubation: > 80%
Fibroblast monolayers [2]
  initial rate of efflux of FC from prelabeled cells to plasma: increased several-fold
Fibroblast monolayers [2]; 2 mM NEM, 80% v/v plasma-PBS, 37° C., control 13.3 ± 0.1
  % efflux to plasma (3 min): 32.4 ± 0.2%
Vesicular transport
  concentration for maximal inhibition in assays of vesicular transport in vitro: 1 mM
Fibroblast monolayers [3]
  FC label in density gradient: no peak of FC label was present with clathrin at d 1.12 g ml^-1
Fibroblast monolayers [4]
  transport of intracellular ^3 H-FC to the cell surface/caveolae: inhibited the return of FC to the cell surface, but less effectively than did nocodazole
Fibroblast monolayers [4]; NEM 2 mM, KNO3 50 mM, nocodazole, brefeldin A, vinblastine 40 μM, pulse labeled 2 min 31° C., then 30 min 31° C.
  % transfer of intracellular ^3 H-FC to the cell surface, relative to rate in absence of inhibitor: 50 ± 3%
Fibroblast monolayers [5]
  Lipoprotein-resistant label (proportion of cell cholesterol label retained): 0.24 ± 0.03
